This note sets out measurements from ChEMBL document CHEMBL1125512, “Synthesis and antiviral activity of methyl derivatives of 9-[2-(phosphonomethoxy)ethyl]guanine” (J Med Chem, 1992).

Bounds are passed on as bounds.

One series has as its system Vero. The series is described as follows: In vitro antiherpesvirus activity against vero cells infected with HSV-2(G strain)[plaque reduction assay]. The format is functional, cell-based. The note with it: Chlorocebus sabaeus.
Series [1] in a line: In vitro cellular toxicity in vero cells. In kind it is cell-based. The settings on record: read-out: TC50 (the source's name).
Series [2] relates to CCRF-CEM. Kind of series: In vitro anti -HIV activity tested against CEM cells infected with HIV by XTT assay. In kind it is functional, cell-based. The settings on record: Homo sapiens. (In general: Tetrazolium dyes change colour on reduction, which living cells bring about.)
Series [3] in a line: Toxicity in vitro against CEM cells by XTT assay. The format is cell-based. The settings on record: human, CCRF-CEM (CEM) cells; read-out: TC50 (the source's name).
Series [4] can be described thus: In vitro cellular toxicity in MRC-5 cells. In kind it is cell-based, MRC5. The note with it: human, read-out: TC50 (the source's name).
Series [5] is described as follows: Selectivity Index is the ratio of the TC50 to EC50. The settings on record: read-out: Selectivity index.
A further series has as its system MRC5. Kind of series: In vitro antiherpesvirus activity against MRC-5 cells infected with HCMV (AD-169 strain). In kind it is functional, cell-based. The settings on record: Homo sapiens.
In series [6] the test system is CCRF-CEM. The series is described as follows: In vitro CEM cell growth inhibition by measuring the number of cells after treatment for 72 hours. The format is functional. The settings on record: Homo sapiens.
Series [7] in a line: In vitro cellular toxicity in WI-38 cells. The note with it: human, read-out: TC50 (the source's name). The format is cell-based.

One may read the IC50 as the concentration that inhibits the measured activity by half. Low values mean inhibition by little substance, high ones a need for much substance. Turning to `CC(C)(OCCn1cnc2c(O)nc(N)nc21)P(=O)(O)O`, the concentration for half-maximal inhibition (IC50) with Vero is more than 300 µM. Also, the CC50 in series [1] (chlorocebus sabaeus) was more than 330 µM.
As a reminder, the EC50 is the concentration needed to bring the measured effect to its halfway point. The molecule `CC(COCP(=O)(O)O)n1cnc2c(O)nc(N)nc21` (stereo not drawn) yielded an EC50 in the series with CCRF-CEM [2] of 5 µM. Further, the CC50 in [3] is 250 µM; in [4], more than 300 µM; in [1] (chlorocebus sabaeus), 200 µM. In addition, the values for the IC50 in the series with Vero and with MRC5 were 11 µM and 1.3 µM, respectively. In addition, the selectivity ratio in [5] turned out to be 25.
As to `Cc1nc2c(O)nc(N)nc2n1CCOCP(=O)(O)O`, in the series on CCRF-CEM [2], the EC50 is more than 100 µM. Further, the CC50 is more than 100 µM in [3] and more than 330 µM in series [1] (chlorocebus sabaeus). The molecule also showed an IC50 in the series on Vero of 172 µM. Moreover, the selectivity ratio in [5] was more than 1.
The molecule `C[C@@H](Cn1cnc2c(O)nc(N)nc21)OCP(=O)(O)O` gave an EC50 in the series with CCRF-CEM [2] of 12 µM. The CC50 in [3] is 300 µM; in series [4], more than 330 µM; with CCRF-CEM [6], 12 µM; in series [1] (chlorocebus sabaeus), more than 330 µM. The IC50 turned out to be 43 µM with Vero and 16 µM in the series on MRC5. For the same molecule, the selectivity ratio in [5] is 25.
In the series on CCRF-CEM [2], `C[C@H](Cn1cnc2c(O)nc(N)nc21)OCP(=O)(O)O` gave an EC50 of 1 µM. Further, the CC50 in series [3] was more than 500 µM; in [4], more than 330 µM; with CCRF-CEM [6], 180 µM; in series [1] (chlorocebus sabaeus), more than 330 µM. Besides, the IC50 is 82 µM with Vero and 16 µM with MRC5. The selectivity ratio in series [5] is more than 500.
`CC(OCCn1cnc2c(O)nc(N)nc21)P(=O)(O)O` (stereo not drawn) yielded an EC50 with CCRF-CEM [2] of more than 100 µM. For the same molecule, the CC50 is more than 100 µM in series [3] and more than 330 µM in [1] (chlorocebus sabaeus). Moreover, half-maximal inhibition in the series on Vero (IC50) was put at 158 µM. Besides, the selectivity ratio in series [5] was more than 1.
`CC(C)(Cn1cnc2c(O)nc(N)nc21)OCP(=O)(O)O` displayed an EC50 in the series on CCRF-CEM [2] of 2.6 µM. In addition, the values for the CC50 in series [7] and in series [3] were more than 330 µM and more than 100 µM, respectively. Also, the IC50 in the series with Vero and in the series with MRC5 was more than 300 µM throughout. In addition, the selectivity ratio in [5] is more than 38.
In the case of `Nc1nc2c(ncn2CC(CO)OCP(=O)(O)O)c(=O)[nH]1` (single isomer, unassigned; form 1), in the series with CCRF-CEM [2], the EC50 came out at 500 µM. Besides, the results for the CC50 in series [3], in [4] and in series [1] (chlorocebus sabaeus) were more than 500 µM, more than 310 µM and more than 310 µM, respectively. The values for the IC50 in the series on Vero and with MRC5 were 99 µM and 1.6 µM, respectively. Also, in [5], the selectivity ratio was more than 1.
The molecule `Nc1nc(O)c2ncn(CC(CO)OCP(=O)(O)O)c2n1` (single isomer, unassigned; form 2) gave an EC50 in the series on CCRF-CEM [2] of more than 500 µM. The CC50 in series [3] is 350 µM; in series [4], more than 310 µM; in series [1] (chlorocebus sabaeus) it was more than 310 µM. In addition, the IC50 in the series with Vero is 97 µM; in the series on MRC5, 0.8 µM. In addition, in series [5], the selectivity ratio was less than 1.
The molecule `Nc1nc2c(ncn2COCCO)c(=O)[nH]1` [ACYCLOVIR] registered an IC50 in the series on Vero of 1.2 µM.
In the series on CCRF-CEM [2], `Nc1ncnc2c1ncn2CCOCP(=O)(O)O` [ADEFOVIR] gave an EC50 of 18 µM. Moreover, in series [3], the CC50 was more than 500 µM. The selectivity ratio in series [5] is more than 27.
The molecule `Nc1nc2c(ncn2COC(CO)CO)c(=O)[nH]1` [GANCICLOVIR] showed an IC50 with MRC5 of 4 µM.
`Nc1nc2c(ncn2CCOCP(=O)(O)O)c(=O)[nH]1` [GS-438]: the EC50 in the series on CCRF-CEM [2] was 0.2 µM. The CC50 in [3] was 15 µM; in series [4] it was 30 µM; with CCRF-CEM [6], 0.2 µM; in series [1] it was 17 µM. The IC50 in the series with Vero was determined as 1.1 µM; in the series with MRC5 it was 0.09 µM. Further, in series [5], the selectivity ratio worked out at 75.
